Key:
[1] = system: Human foreskin fibroblasts; assay: Scratch wound assay, fibroblasts; assay type: cell-based
Method: (§1) A scratch wound assay was employed to evaluate the in vitro wound healing capacity of APATONE® and TOLECINE®. For the scratch-wound assay, cells were seeded on 6-well culture plates. At 80% cell confluence, a scratch-wound was produced using a sterile pipette tip and the size of the gap was measured and set to 100%. The cells were treated with test agents at various concentrations and the closing of the scratch-wound was measured at 24, 48, and 72 hrs. This experiment was performed three times for each cell line. Human foreskin fibroblasts were employed to optimize the assay because of the involvement of fibroblasts in wound healing. Human skin fibroblasts were scratched and then sham treated or treated with VC alone or APATONE® for 24 hrs.

[2] = system: Keratinocytes; assay: Scratch wound assay, keratinocytes; assay type: cell-based; settings: compared with fibroblast data
Method: as §1
Keratinocytes were grown to 90% confluence and then scratched to generate a wound. Cells were then treated with sham (fresh media) or a single dose of APATONE® at 75 μM sodium ascorbate and 0.75 μM menadione sodium bisulfate. […] Without being limited by any theory, the decreased closure of APATONE® during the second 24 hrs probably reflects metabolism of the vitamins by the keratinocytes.

[3] = system: full thickness excision wounds; assay: Wound healing studies in mice; assay type: in vivo, Balbc/J male mice; settings: topical, days 0-5, by day 5, glycerin 27%
Method: Sixty, 5-6 week old Balbc/J male mice were ear notched for identification and housed in individually and positively ventilated polycarbonate cages with HEPA filtered air. Bed-o-cob corn cob bedding were used and cages were changed every two weeks. The animal room was lighted entirely with artificial fluorescent lighting, with a controlled 12 hr light/dark cycle. The normal temperature and relative humidity ranges in the animal rooms were 22±4° C. and 50±15%, respectively. The animal rooms were set to have 15 air exchanges per hour. Filtered tap water, acidified to a pH of 2.8 to 3.1, and rodent chow were provided ad libitum.
Following a 5 to 7 days acclimation, mice were randomized by body weight into 6 cohorts of 10 mice each. On study day 0 (D0), mice were anesthetized and two full thickness excision wounds (˜6 mm) were made on the dorsum (backs) of mice. One of the wounds was covered using a semi-occlusive polyurethane dressing (TEGADERM™). […]
Wound measurements were made on days 5, 7, 9, and 11. […] Traces were captured by scan and analyzed by a computer imaging software. […]
After being wounded, the mice had saddles applied around the wounds to prevent cross contamination and wound closure due to constriction. […] At day 5, test agents were removed and changes in wound area were measured in an effort to gauge the persistence of the compounds in the wound site.

[4] = system: VEGF; assay: VEGF production (VEGF Quantiglo Immunoassay); assay type: cell-based, Human; settings: for VEGF: keratinocytes
Method: Human adult keratinocytes were plated into a 6 well plate and allowed to grow to >80% confluency. The back of a rubber scraper was then used to scratch each plate, creating a uniform linear wound across each well. Cells were then rinsed with media to remove non-adherent cells and drugs at indicated concentrations were added. Media aliquots were taken at 1, 3, 6, or 16 hrs and spun down at 6,250 rpm for 10 minutes. Supernatants were then collected and stored at −4 ° C. until assayed using the VEGF Quantiglo Immunoassay (Research and Development Systems) according to kit instructions.

[5] = system: MatTek EPIDERMFT™ (Full Thickness skin) tissue; assay: MatTek EPIDERM MTT Viability Assay (dermal irritation potential); assay type: cell-based, Human
Method: The MatTek EPIDERM™ MTT Viability Assay was employed as a quantitative method for assessing the dermal irritation potential of TOLECINE®. MatTek EPIDERMFT™ (Full Thickness skin) tissue samples were treated with TOLECINE® (neat) or a positive control (1% Triton X-100) for various exposure times ranging from 1 to 24 hrs. Negative controls (undosed tissues) were tested for 8 hrs only. Following treatment, the viability of the tissues were determined using MTT uptake and conversion and the absorbance of each sample was measured at 540 nm using a reference wavelength of 690 nm. The viability was then expressed as a percent of control values. The mean percent of each time point was used to calculate an ET50, which represented the time at which the EPIDERMFT™ tissue viability was reduced 50% compared to the control tissue.

[6] = system: prostaglandin E2 (PGE-2); assay: PGE-2 ELISA in EPIDERMFT assay medium; assay type: cell-based, Human; settings: 24 hr exposure; negative control 6.1 ng/mL
Method: (§2) Enzyme-linked immunosorbent assay (ELISA) kits were used to test for the presence of the cytokine interleukin-1 alpha (IL-1α) and the inflammatory mediator prostaglandin E2 (PGE-2) in the assay medium. Approximately 1 mL of the media from beneath the tissue millicells were sampled at the end of dosing and incubation. The assays were conducted according to the manufacturer's directions on both undiluted samples and samples diluted to 10% in order to obtain the detectable protein range of the ELISA kits. Protein standards were run with both ELISAs in order to derive standard curves.

[7] = system: intracellular peroxides; assay: Pro-oxidant production (DCFH-DA fluorescence); assay type: cell-based
Method: Production of intracellular peroxides was monitored spectrofluorometrically using dichlorofluorescein diacetate (DCFH-DA) as a fluorescent dye. Cell suspensions were treated with DCFH-DA at a final concentration of 100 μM in the medium. Oxidation of DCFH by peroxides yields dichlorofluorescein (DCF). Fluorescence was monitored at the excitation and emission wavelengths of 485 and 530 nm, respectively, using a fluorescence plate reader (50 cycles per 20 s at 37° C.) (Biotek Synergy HT®). Hydrogen peroxide (μM) was determined based on fluorescence generated from a hydrogen peroxide standard curve.
Apatone production of hydrogen peroxide was determined based a standard curve. Serial dilutions of Apatone (1000/10, 500/5, 250/2.5, 125/1.25, and 62.5/0.625) were then added to cells pre-treated with DCF-DA and read over a series of time points (1, 3, 5, and 24 hrs).

[8] = system: interleukin-1 alpha (IL-1α); assay: IL-1α ELISA in EPIDERMFT assay medium; assay type: cell-based, Human; settings: 24 hr exposure; negative control 8.156 pg/mL
Method: as §2

Oc1ccc(C#Cc2ccc(O)cc2)cc1 [TOLECINE®, 4,4′-(ethyne-1,2-diyl)diphenol]
wound closure ([1]; 2.5 μM, 24 hrs, sham 30%): 85% | wound closure ([1]; 2.5 μM, 48 hrs, sham 80%): 100% | wound closure ([1]; 5 μM, 24 hrs, sham 30%): 85% | wound closure ([1]; 5 μM, 48 hrs, sham 80%): 100% | wound closure ([1]; 10 μM, 24 hrs, sham 30%): 100% | wound closure in keratinocytes [2]: closely approximated that observed with fibroblasts | wound closure ([3]; 2.5% in glycerin): 93% | wound closure ([3]; 5% TOLECINE® in glycerin): 87% | VEGF ([4]; 10 μM, 1 hr, sham 12.4): 32.6 pg/mL | VEGF ([4]; 10 μM, 3 hrs, sham 13.2): 29.4 pg/mL | VEGF ([4]; 10 μM, 6 hrs, sham 42.0): 120 pg/mL | VEGF ([4]; 10 μM, 6 hrs, sham 42.0, listed as TOL): 120.7 pg/mL | VEGF ([4]; 10 μM, 16 hrs, sham 67.4): 237 pg/mL | VEGF ([4]; 10 μM, 16 hrs, sham 67.4, listed as TOL): 237.2 pg/mL | VEGF production, early time course ([4]; 10 μM, first 3 hrs): lag in VEGF production | VEGF ([4]; 20 μM, 1 hr, sham 12.4): 121.2 pg/mL | VEGF ([4]; 20 μM, 3 hrs, sham 13.2): 148.7 pg/mL | VEGF ([4]; 20 μM, 6 hrs, sham 42.0): 225 pg/mL | VEGF ([4]; 20 μM, 6 hrs, sham 42.0, listed as TOL): 225.9 pg/mL | VEGF ([4]; 20 μM, 16 hrs, sham 67.4): 457 pg/mL | VEGF ([4]; 20 μM, 16 hrs, sham 67.4, listed as TOL): 457.2 pg/mL | ET50 (time at which tissue viability was reduced 50% compared to control) ([5]; human): greater than 24 hrs | PGE-2 levels [6]: 9.5 ng/mL | hydrogen peroxide production, dose dependence ([7]; FIGS. 4-6): dose dependent | hydrogen peroxide production over time ([7]; keratinocytes exposed for 5 hrs or more): continued to increase

O=C1O[C@H]([C@@H](O)CO)C(O)=C1O [VC, L-ascorbic acid, reference compound]
width of the scratch ([1]; 2,000 μM VC, at 24 hrs, 28.0 μm immediately after scratching (sham 15.8 to 8.3 μm)): 16.9 μm | activity in scratch wound assay ([1]; VC alone at 75 μM): not active | wound closed ([1]; fibroblasts, after 24 hrs, FIG. 1 (VC 2000 μM), sham about 57%): about 43%

Oc1ccc(C=Cc2cc(O)cc(O)c2)cc1 [resveratrol, reference compound]
VEGF production compared with TOLECINE® ([4]; 20 μM each): less than the VEGF production by TOLECINE® at 20 μM | VEGF ([4]; resveratrol 20 μM, 1 hr, sham 12.4): 139.0 pg/mL | VEGF ([4]; resveratrol 20 μM, 3 hrs, sham 13.2): 166.7 pg/mL | VEGF ([4]; resveratrol 20 μM, 6 hrs, sham 42.0): 196 pg/mL | VEGF ([4]; resveratrol 20 μM, 6 hrs, sham 42.0, listed as RES): 196.0 pg/mL | VEGF ([4]; resveratrol 20 μM, 16 hrs, sham 67.4): 274 pg/mL | VEGF ([4]; resveratrol 20 μM, 16 hrs, sham 67.4, listed as RES): 274.1 pg/mL

Triton X-100 [positive control, reference compound]
IL-1α levels [8]: 168 pg/mL | ET50 (time at which tissue viability was reduced 50% compared to control) ([5]; TOLECINE® neat, positive control 1% Triton X-100, exposure 1 to 24 hrs, MTT): 10.4 h | PGE-2 levels [6]: 1211 ng/mL

Reference: patent US20170246146A1, “POLYPHENOL FOR WOUND HEALING” (IC-MedTech Corporation, priority 2012, published 2017)
